Results taken from patent US10206937B2, “Boronic acid derivatives and therapeutic uses thereof” (Qpex Biopharma, Inc., priority 2014, dated 2019).

System: strains of Enterobacteriaceae producing various carbapenemases (class A, D and B; 104 strains)
Assay: Antibiotics potentiation by Compound 27 (MIC; meropenem, doripenem, ertapenem, cefepime)
Assay type: cell-based
Details: + 27 = with Compound 27 at fixed 4 μg/ml

In the case of `C[C@@H](O)[C@H]1C(=O)N2C(C(=O)O)=C(S[C@@H]3CN[C@H](C(=O)Nc4cccc(C(=O)O)c4)C3)[C@H](C)[C@H]12` [E], the MIC (strain CF1012 Citrobacter freundii (KPC-2)) is reported as “Z (MIC of greater than 10 μg/mL)”, the MIC (strain CF1021 Citrobacter freundii (CMY-type; VIM-1)) is reported as “Y (MIC of 1 μg/mL to 10 μg/mL)” and the MIC (strain CF1022 Citrobacter freundii (SHV-12(2be), TEM-OSBL(2b); IMP-8)) is reported as “Y (MIC of 1 μg/mL to 10 μg/mL)”. For the same compound, the MIC (strain CF1023 Citrobacter freundii (SHV-12(2be), TEM-OSBL(2b); CTX-M-3; CMY-34; NDM-1)) was “Z (MIC of greater than 10 μg/mL)”, the MIC (strain CL1080 Enterobacter cloacae (IMP-1)) was “Y (MIC of 1 μg/mL to 10 μg/mL)” and the MIC (strain EA1019 Enterobacter aerogenes (SHV-5, VIM-1)) was “Z (MIC of greater than 10 μg/mL)”. For the same compound, the MIC (strain EC1007 Escherichia coli (KPC-3)) was “X (MIC of less than 1 μg/mL)”, the MIC (strain EC1061 Escherichia coli (NDM-1, CMY-6)) was “Z (MIC of greater than 10 μg/mL)” and the MIC (strain EC1062 Escherichia coli (OXA-48, CTX-M-15)) was “Y (MIC of 1 μg/mL to 10 μg/mL)”. For the same compound, the MIC (strain EC1064 Escherichia coli (NDM-1, CMY-6, CTX-M-15)) was “Z (MIC of greater than 10 μg/mL)”, the MIC (strain EC1065 Escherichia coli (IMP-1)) was “Y (MIC of 1 μg/mL to 10 μg/mL)” and the MIC (strain EC1068 Escherichia coli (VIM-1)) was “Z (MIC of greater than 10 μg/mL)”. The MIC (strain EC1069 Escherichia coli (CTX-M-27; NDM-1)) was “Z (MIC of greater than 10 μg/mL)”, the MIC (strain EC1070 Escherichia coli (TEM-OSBL(2b); CMY-42; NDM-5)) was “Z (MIC of greater than 10 μg/mL)” and the MIC (strain EC1072 Escherichia coli (CTX-M-3; NDM-1)) was “Z (MIC of greater than 10 μg/mL)”. The MIC (strain ECL1004 Enterobacter cloacae (NMC-A)) was “Z (MIC of greater than 10 μg/mL)”, the MIC (strain ECL1026 Enterobacter cloacae (KPC-2, TEM-1)) was “Z (MIC of greater than 10 μg/mL)” and the MIC (strain ECL1036 Enterobacter cloacae (KPC-3, TEM-1)) was “Y (MIC of 1 μg/mL to 10 μg/mL)”. The MIC (strain ECL1045 Enterobacter cloacae (VIM-1)) was “Z (MIC of greater than 10 μg/mL)”, the MIC (strain ECL1055 Enterobacter cloacae (KPC-3, TEM)) was “Z (MIC of greater than 10 μg/mL)” and the MIC (strain ECL1057 Enterobacter cloacae (NDM-1, TEM-1, CTX-M-15)) was “Z (MIC of greater than 10 μg/mL)”. The MIC (strain ECL1058 Enterobacter cloacae (KPC-3, SHV-11, TEM-1)) was “Z (MIC of greater than 10 μg/mL)”, the MIC (strain ECL1059 Enterobacter cloacae (KPC-3, SHV-12, TEM-1)) was “Y (MIC of 1 μg/mL to 10 μg/mL)” and the MIC (strain ECL1061 Enterobacter cloacae (KPC-3, Hyper AmpC expression)) was “Z (MIC of greater than 10 μg/mL)”. For the same compound, the MIC (strain ECL1082 Enterobacter cloacae (VIM-1)) was “Y (MIC of 1 μg/mL to 10 μg/mL)”, the MIC (strain ECL1084 Enterobacter cloacae (CTX-M-15; ACT-16; NDM-1)) was “Z (MIC of greater than 10 μg/mL)” and the MIC (strain ECL1085 Enterobacter cloacae (SHV-31(2be), TEM-1(2b); CTX-M-15; NDM-1)) was “Z (MIC of greater than 10 μg/mL)”. The MIC (strain ECL1086 Enterobacter cloacae (VIM-31, OXA-48(c))) was “Z (MIC of greater than 10 μg/mL)”, the MIC (strain ECL1087 Enterobacter cloacae (VIM-1)) was “Z (MIC of greater than 10 μg/mL)” and the MIC (strain ECL1088 Enterobacter cloacae (TEM-1(2b); CTX-M-14; ACT-type; VIM-1)) was “Z (MIC of greater than 10 μg/mL)”. For the same compound, the MIC (strain ECL1089 Enterobacter cloacae (ACT-type; IMP-1)) was “Z (MIC of greater than 10 μg/mL)”, the MIC (strain ECL1090 Enterobacter cloacae (TEM-1(2b); CTX-M-22; ACT-type; IMP-8)) was “Y (MIC of 1 μg/mL to 10 μg/mL)” and the MIC (strain ECL1091 Enterobacter cloacae (VIM-1)) was “Y (MIC of 1 μg/mL to 10 μg/mL)”. The MIC (strain ECL1092 Enterobacter cloacae (TEM-OSBL(2b); ACT-32; VIM-1)) was “Y (MIC of 1 μg/mL to 10 μg/mL)”, the MIC (strain ECL1093 Enterobacter cloacae (TEM-OSBL(2b); ACT-32; VIM-1)) was “Y (MIC of 1 μg/mL to 10 μg/mL)” and the MIC (strain ECL1094 Enterobacter cloacae (VIM-1)) was “Z (MIC of greater than 10 μg/mL)”. For the same compound, the MIC (strain ECL1096 Enterobacter cloacae (CMY-4, VIM-4, OXA-48(c))) was “Z (MIC of greater than 10 μg/mL)”, the MIC (strain ECL1097 Enterobacter cloacae (SHV-31(2be), TEM-OSBL(2b); CTX-M-15; ACT-31; NDM-1)) was “Z (MIC of greater than 10 μg/mL)” and the MIC (strain ECL1098 Enterobacter cloacae (TEM-OSBL(2b); DHA-1; ACT-16; NDM-1)) was “Z (MIC of greater than 10 μg/mL)”. The MIC (strain KP1001 Klebsiella pneumoniae (KPC TEM SHV)) was “Z (MIC of greater than 10 μg/mL)”, the MIC (strain KP1002 Klebsiella pneumoniae (KPC TEM SHV)) was “Y (MIC of 1 μg/mL to 10 μg/mL)” and the MIC (strain KP1003 Klebsiella pneumoniae (KPC TEM SHV)) was “Z (MIC of greater than 10 μg/mL)”. For the same compound, the MIC (strain KP1004 Klebsiella pneumoniae (KPC-2, TEM-1, SHV-11)) was “Z (MIC of greater than 10 μg/mL)”, the MIC (strain KP1008 Klebsiella pneumoniae (KPC-2)) was “Y (MIC of 1 μg/mL to 10 μg/mL)” and the MIC (strain KP1014 Klebsiella pneumoniae (VIM-1, TEM, SHV)) was “Y (MIC of 1 μg/mL to 10 μg/mL)”. For the same compound, the MIC (strain KP1054 Klebsiella pneumoniae (VIM-1, SHV-11)) was “Y (MIC of 1 μg/mL to 10 μg/mL)”, the MIC (strain KP1059 Klebsiella pneumoniae (VIM-1, SHV-11)) was “Z (MIC of greater than 10 μg/mL)” and the MIC (strain KP1061 Klebsiella pneumoniae (KPC-3, SHV-11, TEM-1)) was “Z (MIC of greater than 10 μg/mL)”. For the same compound, the MIC (strain KP1064 Klebsiella pneumoniae (KPC-2, SHV-11, TEM-1)) was “Z (MIC of greater than 10 μg/mL)”, the MIC (strain KP1065 Klebsiella pneumoniae (VIM-1, SHV-11)) was “Y (MIC of 1 μg/mL to 10 μg/mL)” and the MIC (strain KP1070 Klebsiella pneumoniae (KPC-2, SHV-11, TEM-1)) was “Z (MIC of greater than 10 μg/mL)”. For the same compound, the MIC (strain KP1074 Klebsiella pneumoniae (KPC-3, SHV-11, TEM)) was “Z (MIC of greater than 10 μg/mL)”.
